We go through 14 molecules from PubChem BioAssay (NCI).

Test systems include 786-0 renal; A498 renal; CCRF-CEM leukemia; HCT-116 colon; IGROV1 ovarian; MDA-MB-231 breast; OVCAR-3 ovarian; OVCAR-5 ovarian; PC-3 prostate; SK-MEL-5 melanoma; SK-OV-3 ovarian; SN12C renal; SNB-19 CNS; SR leukemia; UACC-257 melanoma.
What all share (experiment): DTP human tumour cell line panel, 48 h

Structures are written as SMILES.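 48-hour exposure; five concentrations; linearly interpolated endpoints. Definition used: TGI = concentration required for complete inhibition of growth.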 A value given as a limit tells only on which side of the number the result lay.

Regarding `COC(=O)/C=C(/C(=O)OC)c1c(C)cc2c(C)cc(C)cc(C)c1-2`, the TGI (in general, the concentration giving total growth inhibition) is 41.1 µM in the test with 786-0 renal; 70.3 µM in the test on A498 renal; above 100 µM in the test with CCRF-CEM leukemia; 18.5 µM in the test on HCT-116 colon; above 100 µM in the test with IGROV1 ovarian; 15.3 µM in the test with MDA-MB-231 breast. The TGI in the test with OVCAR-3 ovarian is 38.3 µM; in the test on OVCAR-5 ovarian, above 78.8 µM; in the test on PC-3 prostate, 98.6 µM; in the test on SK-MEL-5 melanoma it was 23.5 µM; in the test with SK-OV-3 ovarian it was 99.5 µM; in the test with SN12C renal, 40.2 µM. The total growth inhibition concentration (TGI) was above 100 µM with SNB-19 CNS, above 100 µM with SR leukemia and above 77.5 µM in the test on UACC-257 melanoma.
Regarding `COc1ccc(/C=C2\CN(C)CC3C2=NC(=S)NC3c2ccc(OC)cc2)cc1` (stereo not given), the TGI with 786-0 renal is above 68.5 µM; with A498 renal, 26.3 µM; in the test on CCRF-CEM leukemia, above 24.7 µM; with HCT-116 colon, above 44.7 µM; in the test on IGROV1 ovarian it was above 22.6 µM; with MDA-MB-231 breast, above 59.1 µM. Moreover, the TGI in the test with OVCAR-3 ovarian is 10.3 µM; in the test with OVCAR-5 ovarian it was above 86 µM; in the test on PC-3 prostate it was above 50 µM; with SK-MEL-5 melanoma, above 100 µM; in the test with SK-OV-3 ovarian it was above 100 µM; in the test with SN12C renal, above 100 µM. The TGI in the test with SNB-19 CNS, in the test with SR leukemia and in the test with UACC-257 melanoma was above 100 µM in each case.
`Cc1cc(-c2nc3cc(O)ccc3s2)ccc1N`: the TGI with 786-0 renal is above 100 µM; with A498 renal it was 61.7 µM; in the test on CCRF-CEM leukemia, 96.8 µM; in the test with HCT-116 colon it was 42.7 µM; in the test on IGROV1 ovarian it was above 100 µM; with MDA-MB-231 breast, above 100 µM. The TGI in the test on OVCAR-3 ovarian was 67.3 µM; in the test with OVCAR-5 ovarian, 75.5 µM; with PC-3 prostate it was above 100 µM; in the test on SK-MEL-5 melanoma, 48 µM; in the test on SK-OV-3 ovarian, 77.1 µM; in the test with SN12C renal, 74.2 µM. Further, the TGI in the test on SNB-19 CNS, in the test with SR leukemia and with UACC-257 melanoma was above 100 µM in each case.
In the case of `O=Cc1ccc(-c2cccc([N+](=O)[O-])c2)s1`, the TGI is above 100 µM in the test on 786-0 renal; 53.4 µM with A498 renal; above 100 µM in the test with CCRF-CEM leukemia; above 100 µM with HCT-116 colon; above 100 µM with IGROV1 ovarian; above 100 µM in the test with MDA-MB-231 breast. Moreover, the TGI with OVCAR-3 ovarian, in the test on OVCAR-5 ovarian, in the test with PC-3 prostate, in the test on SK-MEL-5 melanoma, in the test on SK-OV-3 ovarian and with SN12C renal was above 100 µM in each case. Also, the TGI in the test with SNB-19 CNS, in the test with SR leukemia and with UACC-257 melanoma was above 100 µM in each case.
As to `Clc1ccc(-c2nnc(C34CC5CC(CC(C5)C3)C4)o2)cc1`, the total growth inhibition concentration (TGI) in the test on 786-0 renal, with A498 renal, in the test with CCRF-CEM leukemia, in the test on HCT-116 colon, in the test with IGROV1 ovarian and with MDA-MB-231 breast was above 100 µM throughout. Further, the TGI in the test on OVCAR-3 ovarian, in the test with OVCAR-5 ovarian, in the test with PC-3 prostate, in the test with SK-MEL-5 melanoma, in the test on SK-OV-3 ovarian and with SN12C renal was above 100 µM in each case. Besides, the TGI in the test with SNB-19 CNS, in the test with SR leukemia and in the test on UACC-257 melanoma was above 100 µM each time.
On to `Cc1ccc(CCCCCOc2ccc(C3=NCCO3)cc2)s1`, for which the TGI in the test with 786-0 renal is above 100 µM; in the test with A498 renal, 4.47 µM; with CCRF-CEM leukemia, above 100 µM; with HCT-116 colon, above 100 µM; with IGROV1 ovarian it was above 100 µM; in the test on MDA-MB-231 breast, above 100 µM. Also, the TGI in the test on OVCAR-3 ovarian, in the test on OVCAR-5 ovarian, in the test on PC-3 prostate, in the test on SK-MEL-5 melanoma, with SK-OV-3 ovarian and with SN12C renal was above 100 µM in each case. Moreover, the TGI in the test with SNB-19 CNS, in the test with SR leukemia and in the test on UACC-257 melanoma was above 100 µM each time.
In the case of `CC(=O)N1C2=CCCC2(C)c2ccccc21` (stereo not given), the TGI in the test on 786-0 renal, in the test on A498 renal, in the test on CCRF-CEM leukemia, in the test with HCT-116 colon, in the test with IGROV1 ovarian and with MDA-MB-231 breast was above 100 µM each time. For the same molecule, the TGI in the test with OVCAR-3 ovarian, in the test on OVCAR-5 ovarian, with PC-3 prostate, in the test with SK-MEL-5 melanoma, in the test with SK-OV-3 ovarian and in the test with SN12C renal was above 100 µM throughout. The TGI with SNB-19 CNS, in the test with SR leukemia and in the test with UACC-257 melanoma was above 100 µM each time.
As to `O=C(OC(/C=C/c1ccccc1)P1(=O)N(Cc2ccccc2)[C@@H]2CCCC[C@H]2N1Cc1ccccc1)c1ccccc1` (stereo not given in full), the TGI with 786-0 renal is above 100 µM; with A498 renal, above 100 µM; in the test with CCRF-CEM leukemia it was 7.88 µM; in the test with HCT-116 colon, above 100 µM; with IGROV1 ovarian, above 25.6 µM; with MDA-MB-231 breast it was 30.3 µM. For the same molecule, the TGI in the test with OVCAR-3 ovarian is above 100 µM; in the test with OVCAR-5 ovarian it was above 100 µM; with PC-3 prostate it was above 100 µM; in the test on SK-MEL-5 melanoma, 11.4 µM; in the test with SK-OV-3 ovarian, above 100 µM; in the test on SN12C renal, above 100 µM. In addition, the values for the TGI in the test on SNB-19 CNS, in the test with SR leukemia and in the test with UACC-257 melanoma were above 100 µM, 15.2 µM and above 54.7 µM, respectively.
Regarding `CN(C)/C=C/c1ccncc1`, the concentration for total growth inhibition (TGI) in the test with 786-0 renal, in the test on A498 renal, with CCRF-CEM leukemia, in the test with HCT-116 colon, in the test on IGROV1 ovarian and with MDA-MB-231 breast was above 100 µM throughout. Further, the concentration for total growth inhibition (TGI) in the test on OVCAR-3 ovarian, with OVCAR-5 ovarian, in the test with PC-3 prostate, in the test with SK-MEL-5 melanoma, in the test on SK-OV-3 ovarian and with SN12C renal was above 100 µM throughout. In addition, the TGI in the test with SNB-19 CNS, in the test on SR leukemia and with UACC-257 melanoma was above 100 µM each time.
As to `CCCCCCCCCC1CC(=O)NCC(=O)NC(C(C)C)C(=O)NC(CC(C)C)C(=O)NC(C)C(=O)NC(C(C)C)C(=O)O1` (stereo not given), the TGI with 786-0 renal is 35 µM; in the test on A498 renal it was above 55.4 µM; with CCRF-CEM leukemia, above 56.4 µM; in the test on HCT-116 colon, above 66.3 µM; in the test on IGROV1 ovarian it was above 100 µM; in the test with MDA-MB-231 breast, above 38.6 µM. For the same molecule, the TGI was 28.8 µM in the test with OVCAR-3 ovarian; above 64 µM in the test with OVCAR-5 ovarian; 22.4 µM in the test with PC-3 prostate; above 61.6 µM in the test on SK-MEL-5 melanoma; 39.2 µM with SK-OV-3 ovarian; 80.2 µM in the test with SN12C renal. Further, the results for the TGI in the test on SNB-19 CNS, in the test with SR leukemia and with UACC-257 melanoma were above 48.2 µM, above 92.4 µM and above 88 µM, respectively.
With `CCN1C[C@]2(C)CC[C@H](OCc3ccccc3)C34C5C[C@@H]6CC[C@](O)(C(C[C@@H]32)C14)C5[C@H]6OCc1ccccc1` (stereo not given in full), the TGI in the test with 786-0 renal, with A498 renal, in the test with CCRF-CEM leukemia, with HCT-116 colon, in the test on IGROV1 ovarian and in the test with MDA-MB-231 breast was above 100 µM each time. Moreover, the TGI in the test on OVCAR-3 ovarian, with OVCAR-5 ovarian, with PC-3 prostate, in the test on SK-MEL-5 melanoma, in the test on SK-OV-3 ovarian and in the test on SN12C renal was above 100 µM throughout. Besides, the TGI with SNB-19 CNS, in the test on SR leukemia and with UACC-257 melanoma was above 100 µM throughout.
Regarding `O=C(/C=C(\O)c1ccc(Cl)cc1)C(=O)NN=C(c1ccccc1)c1ccccc1`, the concentration for total growth inhibition (TGI) is above 100 µM in the test with 786-0 renal; 47.2 µM with A498 renal; 98.5 µM with CCRF-CEM leukemia; above 100 µM in the test on HCT-116 colon; above 100 µM with IGROV1 ovarian; 65.1 µM in the test on MDA-MB-231 breast. Moreover, the TGI with OVCAR-3 ovarian, with OVCAR-5 ovarian, in the test with PC-3 prostate, with SK-MEL-5 melanoma, in the test on SK-OV-3 ovarian and with SN12C renal was above 100 µM in each case. Besides, the TGI with SNB-19 CNS, in the test with SR leukemia and in the test with UACC-257 melanoma was above 100 µM in each case.
As for `COc1cccc(C[C@H]2COC(=O)[C@]2(O)Cc2cccc(OC)c2)c1`, the total growth inhibition concentration (TGI) with 786-0 renal, with A498 renal, in the test on CCRF-CEM leukemia, with HCT-116 colon, in the test on IGROV1 ovarian and with MDA-MB-231 breast was above 100 µM in each case. The TGI with OVCAR-3 ovarian, in the test on OVCAR-5 ovarian, in the test with PC-3 prostate, in the test on SK-MEL-5 melanoma, in the test with SK-OV-3 ovarian and in the test with SN12C renal was above 100 µM each time. The TGI in the test with SNB-19 CNS, in the test with SR leukemia and in the test with UACC-257 melanoma was above 100 µM in each case.
For `C/C1=C\CC/C(C)=C/C=C(/C(C)C)CC/C(C(=O)O)=C/CC1`, the TGI in the test on 786-0 renal was above 100 µM; in the test on A498 renal it was 75.1 µM; with CCRF-CEM leukemia, above 100 µM; with HCT-116 colon it was above 100 µM; in the test with IGROV1 ovarian it was above 100 µM; in the test on MDA-MB-231 breast, above 100 µM. Moreover, the TGI is 59.5 µM with OVCAR-3 ovarian; above 100 µM in the test on OVCAR-5 ovarian; above 100 µM with PC-3 prostate; above 100 µM with SK-MEL-5 melanoma; 98.2 µM in the test on SK-OV-3 ovarian; above 100 µM with SN12C renal. The TGI with SNB-19 CNS, in the test on SR leukemia and in the test on UACC-257 melanoma was above 100 µM throughout.
